Results: patent US20110275678A1, “New Pyridine Derivatives as Leptin Receptor Modulator Mimetics” (priority 2008, published 2011)

Columns and labels:
JEG-3 cells [1] = assay: [3H]-thymidine incorporation by JEG-3 cells (leptin assay in non-recombinant system); assay type: cell-based; details: FIG. 5
From the text: Leptin Assay in Non-Recombinant System The leptin receptor expression in non-recombinant system is often fluctuating and care must be given to identify a system where signal stability remains within experiments. Using such a system, leptin receptor antagonist mimetics could be identified by evaluating is their action vs. leptin (see below). Leptin is produced chiefly in adipose cells, but in humans, mRNA encoding leptin is also present in the placenta. Here, leptin might play an important proliferative role in the microvasculature. The possibility to use this hypothesis in a native cell line was evaluated. JEG-3 Protocol In JEG-3 cells (choriocarcinoma cell line) leptin is able to stimulate proliferation up to 3 fold (Biol. Reprod. (2007) 76: 203-10). […] The radioactivity incorporated by the cells is an index of their proliferative activity and is measured in counts per minute (CPM) with a liquid scintillation beta counter. This finding can be applied to test whether a compound is able to either reproduce the effect of leptin on cell proliferation (leptin receptor agonist mimetic) (i.e., a given compound will cause an increase in incorporated [^3H]-Thymidine by the cells) or to inhibit the effect of leptin (antagonistic effect) by preventing the leptin-mediated increase in [^3H]-thymidine incorporation. […]

JEG-3 cells [2] = details: Biol. Reprod. (2007) 76: 203-10; cited from earlier work

For “leptin: a hormone synthesized in fat cells that is believed to act in the hypothalamus to reduce food intake and body weight”, the EC50 (JEG-3 cells [1]; JEG-3 cells (choriocarcinoma cell line), read-out: EC50, increase in [3H]-thymidine incorporation) is listed as 2.1 nM, the “concentration of maximal effect on [3H]-thymidine incorporation” value (JEG-3 cells [1]; JEG-3 cells) is listed as 100 nM and the stimulation of proliferation (JEG-3 cells [2]) is listed as “up to 3 fold”.
